Assay results published in patent publication US20020165208A1, “Compositions and methods relating to hypertension” (priority 2000, published 2002).
Where two headings read alike, the source gives them in different places.

Columns and labels:
[1] = tested on: renal vasculature; conditions: synthetic 20-HETE; cited from earlier work
[2] = target: T1, recombinant Cyp 4a14 (Mus musculus, UniProt O35728); assay: Substrate oxidation by purified recombinant Cyp 4a14; assay type: biochemical
T1 construct: A KpnI-XhoI cDNA fragment (1.9 kb) was subcloned into the pBlueBac IV vector; made in house; host or cells: Sf9 insect cells / baculovirus (pBlueBac IV, Invitrogen)
T1 sequence (O35728 5-507): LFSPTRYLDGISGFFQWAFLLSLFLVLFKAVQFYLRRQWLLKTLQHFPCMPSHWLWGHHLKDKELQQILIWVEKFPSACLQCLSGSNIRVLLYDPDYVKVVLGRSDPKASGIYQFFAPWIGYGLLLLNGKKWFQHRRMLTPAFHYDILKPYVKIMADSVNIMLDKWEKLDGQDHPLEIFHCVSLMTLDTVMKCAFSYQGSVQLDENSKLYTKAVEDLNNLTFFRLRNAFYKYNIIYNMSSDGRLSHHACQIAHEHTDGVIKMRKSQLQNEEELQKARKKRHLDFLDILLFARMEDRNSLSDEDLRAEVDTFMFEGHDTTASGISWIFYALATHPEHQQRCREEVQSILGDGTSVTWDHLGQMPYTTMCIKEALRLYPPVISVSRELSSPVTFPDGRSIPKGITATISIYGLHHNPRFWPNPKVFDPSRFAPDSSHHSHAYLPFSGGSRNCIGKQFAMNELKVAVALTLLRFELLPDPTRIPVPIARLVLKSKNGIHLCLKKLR
Procedure: (§1) Kidney microsomes were isolated from treated and nontreated Cyp 4a14 (+/+) and (−/−) mice (21), suspended (1-2 mg of protein/ml) in 0.05 M Tris·Cl (pH 7.4) containing 0.15 M KCl and 10 mM MgCl2, and incubated with [1^14C]AA or lauric acid (100 μM, 5 μCi/μmol each) and NADPH (1 mM) at 35° C. Reaction products were resolved and quantified as described (21). For antibody inhibition, microsomes were incubated (30 min at 22° C.) with rabbit anti-CYP 4A2 or nonimmune serum (0.1-1 mg of protein/ml) before enzymatic analysis. Recombinant Cyp 4a14 (0.1-1 μM) was incubated with [1-^14C]-labeled AA or lauric acid in the presence of purified P450 reductase, cytochrome b5, dilauroylphosphatidylcholine, and NADPH (1 mM), as described (15, 21). Urine collections (8-12 h) were incubated at 35° C. for 2-3 h with -glucoronidase (22) (Sigma) (1 mg/ml) and, after purification, the levels of 19- and 20-HETE were quantified by mass spectroscopy (22).

[3] = tested on: Cyp 4a12 transcripts; conditions: DHT-treated castrated Cyp 4a14 (−/−) mice
Procedure: Top frame: Samples of total RNA (5-10 μg each) from the kidneys of control (A), castrated (B), castrated and DHT-treated (C) males or from control (D) and DHT-treated (E) females were fractionated by agar electrophoresis, transferred to nitrocellulose membranes, and hybridized to ^32P-labeled DNA probes (400-500 bp) coding for segments of the 3′-untranslated end of the Cyp 4a10, 4a12, and 4a14 cDNAs. After high-stringency washes, the membranes were exposed to x-ray films for 4, 2, or 21 h for male Cyp 4a10, 4a12, and 4a14, respectively, and 6, 21, or 12 h for female Cyp 4a10, 4a12, and 4a14, respectively. RNA loadings were normalized by using a -actin cDNA probe. […] Bottom frame: Dehydrated paraffin sections from the kidneys of control (A and A′), castrated (B and B′) and DHT-treated castrated male mice (C and C′) were hybridized to [^35S]-labeled riboprobes encoding 3′-end untranslated segments of the Cyp 4a12 cDNA. After washing, RNase A treatment, and dehydration, the sections were dipped in emulsion (IlfordK5; Knutsford, Cheshire, U.K.), exposed for 4-5 days at 4° C., and developed by using D-19 (Kodak). Slides were counterstained with hematoxylin. Photomicrographs were obtained by using either dark-field (3×) (A-C) or bright-field (100×) (A′, B′, and C′) optics.

[4] = Plasma androgen levels (TST and DHT) by RIA in castrated, pellet-implanted mice; conditions: for concentration at 10 days: male, mouse, in vivo, 5 mg DHT/day, Plasma DHT level, DHT-releasing pellets, ten days after implantation
[5] = tested on: Arachidonic acid ω-hydroxylase of mouse kidney microsomes; conditions: DHT pellets
Procedure: as §1

[6] = tested on: Cyp 4a14 (+/+) and (−/−) mice; assay: Arterial blood pressure of conscious mice by right carotid artery catheter; assay type: in vivo, mouse; conditions: for Effect on hypertensive phenotype (blood pressure): castrated Cyp 4a14 (−/−) mice, androgen-releasing pellets
Procedure: The arterial blood pressures of conscious 12- to 14-week-old mice were measured by means of a right carotid artery catheter (300-500 μm OD). After surgery (24-48 h), animals were allowed to become familiar with the environment and, after stabilization, their arterial blood pressures were monitored continuously for at least 30 min by using a pressure transducer. […] For measurements of afferent arteriolar diameter, male kidneys were perfused in vitro with a physiological salt solution supplemented with a mixture of L-amino acids (23), and the juxtamedullary vasculature was monitored continuously by videomicroscopy, as described (23). The relationship between afferent arteriolar diameter and perfusion pressure was determined at 80, 120, and 160 mm Hg. Perfusion pressure changes were followed by a 3-min equilibration before steady-state diameter measurements (23).

[7] = target: T2, rat CYP 4A2 (Rattus norvegicus, UniProt P20816); assay: TST oxidation by rat CYP 4A2
T2 sequence (P20816 5-504): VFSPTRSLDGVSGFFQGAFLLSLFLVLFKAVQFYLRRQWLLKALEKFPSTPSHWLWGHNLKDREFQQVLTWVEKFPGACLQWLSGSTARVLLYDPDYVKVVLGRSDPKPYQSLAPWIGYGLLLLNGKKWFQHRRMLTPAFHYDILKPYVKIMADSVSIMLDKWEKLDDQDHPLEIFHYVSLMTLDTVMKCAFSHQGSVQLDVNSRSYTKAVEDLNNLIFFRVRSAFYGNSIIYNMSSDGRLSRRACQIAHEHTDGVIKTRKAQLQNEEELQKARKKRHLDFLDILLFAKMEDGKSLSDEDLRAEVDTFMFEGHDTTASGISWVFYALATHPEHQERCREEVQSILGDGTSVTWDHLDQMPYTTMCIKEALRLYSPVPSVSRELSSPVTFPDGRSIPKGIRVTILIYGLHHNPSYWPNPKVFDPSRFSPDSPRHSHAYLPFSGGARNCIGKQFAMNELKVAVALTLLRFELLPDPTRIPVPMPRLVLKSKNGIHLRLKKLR

[8] = target: T3, rat CYP 4A1 (Rattus norvegicus, UniProt P08516); assay: TST oxidation by rat CYP 4A1
T3 sequence (P08516 1-509): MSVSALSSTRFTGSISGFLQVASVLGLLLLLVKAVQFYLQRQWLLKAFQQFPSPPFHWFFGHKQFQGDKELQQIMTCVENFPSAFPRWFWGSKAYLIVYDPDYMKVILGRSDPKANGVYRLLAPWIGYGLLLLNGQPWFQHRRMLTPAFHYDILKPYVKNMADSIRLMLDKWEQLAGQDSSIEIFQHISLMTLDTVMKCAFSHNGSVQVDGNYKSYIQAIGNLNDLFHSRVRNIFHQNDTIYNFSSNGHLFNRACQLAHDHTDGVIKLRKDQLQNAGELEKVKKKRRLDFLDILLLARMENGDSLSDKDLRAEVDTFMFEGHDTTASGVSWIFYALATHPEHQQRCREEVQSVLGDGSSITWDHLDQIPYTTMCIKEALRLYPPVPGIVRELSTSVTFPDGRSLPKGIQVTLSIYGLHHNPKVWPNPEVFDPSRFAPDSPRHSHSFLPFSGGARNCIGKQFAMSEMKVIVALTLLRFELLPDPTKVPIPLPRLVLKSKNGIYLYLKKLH

SMILES: O=C(O)CCC/C=C\C/C=C\C/C=C\C/C=C\CCCCCO [20-HETE, 20-hydroxyarachidonic acid]
- Renal vasoconstrictor activity [1]: powerful renal vasoconstrictor

SMILES: CCCCC/C=C\C/C=C\C/C=C\C/C=C\CCCC(=O)O [AA, arachidonic acid]
- AA metabolism ([2]; purified recombinant Cyp 4a14, even with cytochrome b5, excess P450 reductase, GSH, EDTA, and/or sodium cholate): did not metabolize AA

SMILES: C[C@]12CCC(=O)C[C@@H]1CC[C@@H]1[C@@H]2CC[C@]2(C)[C@@H](O)CC[C@@H]12 [DHT, 5-dihydrotestosterone]
- Cyp 4a12 transcript expression in kidney [3]: abundant and selective expression of 4a 12 transcripts in the renal cortex
- concentration at 10 days ([4]; castrated male Cyp 4a14 (+/+) mice): 2.64 ± 0.3 ng/mL
- concentration at 10 days ([4]; castrated male Cyp 4a14 (−/−) mice): 2.01 ± 0.1 ng/mL
- (20-HETE) % of total ([5]; castrated male (+/+) mice): 82 % of total
- ω-Hydroxylase rate ([5]; castrated male (+/+) mice): 228 ± 35 picomoles of product formed per minute per milligram of microsomal protein
- (20-HETE) % of total ([5]; castrated male (−/−) mice): 82 % of total
- ω-Hydroxylase rate ([5]; castrated male (−/−) mice): 225 ± 23 picomoles of product formed per minute per milligram of microsomal protein
- (20-HETE) % of total ([5]; female (+/+) mice): 76 % of total
- ω-Hydroxylase rate ([5]; female (+/+) mice): 140 ± 3 picomoles of product formed per minute per milligram of microsomal protein
- (20-HETE) % of total ([5]; female (−/−) mice): 77 % of total
- ω-Hydroxylase rate ([5]; female (−/−) mice): 164 ± 3 picomoles of product formed per minute per milligram of microsomal protein
- MABP ([6]; DHT-treated castrated Cyp 4a14 (+/+) mice, n=10): 137±4 mm of Hg
- MABP ([6]; DHT-treated control (noncastrated) Cyp 4a14 (+/+) mice, n=10): 140±5 mm of Hg
- MABP ([6]; DHT-treated female Cyp 4a14 (+/+) mice): 132±4 mm of Hg
- MABP ([6]; DHT-treated female Cyp 4a14 (−/−) mice): 133±4 mm of Hg
- Effect on hypertensive phenotype (blood pressure) [6]: restored the hypertensive phenotype

SMILES: C[C@]12CC[C@H]3[C@@H](CCC4=CC(=O)CC[C@@]43C)[C@@H]1CC[C@@H]2O [TST, testosterone]
- TST oxidation [7]: neither recombinant Cyp 4a14 nor rat CYPs 4A1 or 4A2 catalyzed TST oxidation
- TST oxidation [8]: neither recombinant Cyp 4a14 nor rat CYPs 4A1 or 4A2 catalyzed TST oxidation
- Plasma TST level ([4]; castrated Cyp 4a14 (−/−) mice given TST, n=7): 1.8±0.04 ng TST/ml
- Effect on hypertensive phenotype (blood pressure) [6]: restored the hypertensive phenotype

SMILES: CCCCCCCCCCCC(=O)O [lauric acid]
- Lauric acid oxidation rate ([2]; purified recombinant Cyp 4a14): 4.0±0.8 nmol product/min/nmol of P450
